According to ChEMBL document CHEMBL1201862, “PubChem BioAssay data set” (2004):
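Method: 48-hour compound exposure of cells in 96-well plates, five concentrations, linear interpolation of endpoints. Here, GI50 denotes the concentration required for 50% inhibition of growth.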 Activity calls are given as the source filed them. Rule as the data show it: active = GI50 up to about 1.1 µM and inactive = higher.

Assays:
Experiment in all cases: inhibition of tumour cell growth, NCI panel, 48 h
[1] = system: A498
[2] = system: CCRF-CEM
[3] = system: OVCAR-5
[4] = system: IGROV-1
[5] = system: K562
[6] = system: RPMI-8226
[7] = system: SF-539
[8] = system: HOP-92
[9] = system: TK-10
[10] = system: NCI-H522
[11] = system: SF-295
[12] = system: NCI-H460
[13] = system: SK-MEL-28
[14] = system: OVCAR-8
[15] = system: SK-MEL-5

Measured: GI50

Cc1ccc2c(c1)-c1c3c(nn1-c1ccccc1)-c1ccccc1SC3O2 (configuration not stated)
inactive: [1] > 100 µM | [2] > 100 µM | [3] 97.1 µM | [4] > 100 µM | [5] > 100 µM | [6] 63.8 µM | [7] > 100 µM | [8] > 100 µM | [9] > 100 µM | [10] > 100 µM | [11] > 100 µM | [12] > 100 µM | [13] > 100 µM | [14] > 100 µM

C/C(=N\NS(=O)(=O)c1ccc(C)cc1)c1c(O)cc(C)oc1=O
inactive: [1] > 100 µM | [2] > 100 µM | [4] > 100 µM | [5] > 100 µM | [15] > 100 µM | [7] > 100 µM | [8] > 100 µM | [9] > 100 µM | [11] > 100 µM | [12] > 100 µM | [13] > 100 µM | [14] > 100 µM

N#CCN1C(=O)c2cccc3cc([N+](=O)[O-])cc(c23)C1=O
inactive: [1] 47.1 µM | [2] 24.7 µM | [3] 31.3 µM | [4] 42.9 µM | [5] 27.5 µM | [15] 43.1 µM | [6] 22.7 µM | [7] 33 µM | [8] 99.1 µM | [9] 36.4 µM | [11] 61.9 µM | [12] 29 µM | [13] 35.2 µM | [14] 38.9 µM

Cc1cc(C)nc(NS(=O)(=O)c2ccc(Nc3c4ccccc4nc4c(C(=O)N5CCN(CCO)CC5)ccc(Cl)c34)cc2)n1
inactive: [1] > 100 µM | [2] 25.9 µM | [3] > 100 µM | [4] > 100 µM | [5] 38.5 µM | [15] 42.8 µM | [6] 91.4 µM | [7] > 100 µM | [8] > 100 µM | [9] > 100 µM | [11] > 100 µM | [12] > 100 µM | [13] > 100 µM | [14] > 100 µM

CCOC(=O)C(=O)Nc1ccc(C)cc1C
inactive: [2] > 100 µM | [3] > 100 µM | [4] > 100 µM | [5] > 100 µM | [15] > 100 µM | [6] > 100 µM | [7] > 100 µM | [8] > 100 µM | [9] > 100 µM | [10] > 100 µM | [11] > 100 µM | [12] > 100 µM | [13] > 100 µM | [14] > 100 µM

C#CCNC(=O)NCCCCC(NC(C)=O)C(=O)NCc1ccccc1 (configuration not stated)
inactive: [1] > 100 µM | [2] > 100 µM | [3] > 100 µM | [4] > 100 µM | [5] > 100 µM | [15] > 100 µM | [6] > 100 µM | [7] > 100 µM | [8] > 100 µM | [9] > 100 µM | [10] > 100 µM | [11] > 100 µM | [12] > 100 µM | [13] > 100 µM | [14] > 100 µM

CC(C)c1cc2c(O)c(c1)Cc1cc(C(C)C)cc(c1O)Cc1cc(C(C)C)cc(c1O)Cc1cc(C(C)C)cc(c1O)Cc1cc(C(C)C)cc(c1O)Cc1cc(C(C)C)cc(c1O)C2
inactive: [2] > 100 µM | [3] > 100 µM | [4] > 100 µM | [5] > 100 µM | [15] > 100 µM | [6] > 100 µM | [7] > 100 µM | [8] > 100 µM | [9] > 100 µM | [10] > 100 µM | [11] > 100 µM | [12] > 100 µM | [13] > 100 µM | [14] > 100 µM

CN1CCC(SC2Cc3cc(Cl)ccc3Sc3ccccc32)CC1 (configuration not stated)
inactive: [1] 16.1 µM | [3] 16.7 µM | [4] 14.7 µM | [5] 5.04 µM | [15] 13.5 µM | [6] 7.29 µM | [7] 16.4 µM | [8] 11.7 µM | [9] 13 µM | [10] 13.9 µM | [11] 15.9 µM | [12] 12.2 µM | [13] 2.12 µM | [14] 17.3 µM

N=S(c1ccccc1)c1ccccc1[N+](=O)[O-] (configuration not stated)
inactive: [1] 34.3 µM | [2] 11.1 µM | [3] 20.1 µM | [4] 18.1 µM | [5] 10.4 µM | [15] 15 µM | [6] 18.2 µM | [7] 18.5 µM | [9] 20.4 µM | [10] 4.71 µM | [11] 18.8 µM | [12] 28.1 µM | [14] 23.8 µM

COc1ccc(NC(=O)C/C(C)=N\N=C(N)N)c([N+](=O)[O-])c1
inactive: [1] > 100 µM | [2] > 100 µM | [3] > 100 µM | [4] > 100 µM | [5] > 100 µM | [15] > 100 µM | [6] > 100 µM | [7] > 100 µM | [8] > 100 µM | [9] > 100 µM | [10] > 100 µM | [11] > 100 µM | [12] > 100 µM | [13] > 100 µM | [14] > 100 µM

CCCN(CCC)C(=O)C(=O)c1c(N)[nH]n(-c2ccccc2)c1=O
inactive: [1] > 100 µM | [2] 93.3 µM | [3] > 100 µM | [4] > 100 µM | [5] 43.5 µM | [15] > 100 µM | [6] > 100 µM | [7] > 100 µM | [8] > 100 µM | [9] > 100 µM | [10] > 100 µM | [11] > 100 µM | [12] > 100 µM | [14] > 100 µM

COC(=O)C(=O)CC(=O)CCn1[nH]c(=O)c(Cl)c(Cl)c1=O
inactive: [1] > 100 µM | [3] > 100 µM | [4] > 100 µM | [5] > 100 µM | [15] > 100 µM | [7] > 100 µM | [8] > 100 µM | [9] > 100 µM | [10] > 100 µM | [11] > 100 µM | [12] > 100 µM | [13] > 100 µM | [14] > 100 µM

N#CC1(Cc2ccc(N)cc2)c2ccccc2C=CN1C(=O)c1ccccc1 (configuration not stated)
inactive: [1] 40 µM | [2] 29 µM | [3] > 100 µM | [4] 77.6 µM | [5] 26.5 µM | [15] 21.8 µM | [6] 35.2 µM | [7] 60.5 µM | [8] 33.6 µM | [9] 44.4 µM | [10] 60.1 µM | [11] 33 µM | [13] 79.3 µM | [14] 40.6 µM

CN(C)/C=N/c1nc2c(ncn2C2OC(CO)C(O)C2O)c(=O)[nH]1 (configuration not stated)
inactive: [1] > 100 µM | [3] > 100 µM | [4] > 100 µM | [5] > 100 µM | [15] > 100 µM | [6] > 100 µM | [7] > 100 µM | [8] > 100 µM | [9] > 100 µM | [11] > 100 µM | [12] > 100 µM | [14] > 100 µM
